{"source": "patent US6846913B1", "about": "“Crude extract from Viscum album coloratum, and proteins and lectins isolated therefrom” (Mistle Biotech Co., Ltd., priority 1999, dated 2005)", "system": "hemagglutination of KML-IIU and KML-IIL", "parameters": "species or system Korean mistletoe", "details": "sugars stepwise diluted from 100 mM", "data": [{"compound": "O=C[C@H](O)[C@@H](O)[C@@H](O)[C@H](O)CO", "note": "[Galactose]", "values": [{"measurement": "Minimal Conc. (mM) necessary to inhibit the hemagglutination", "result": 6, "unit": "mM"}]}, {"compound": "OC[C@H]1O[C@@H](O[C@H]2[C@H](O)[C@@H](O)C(O)O[C@@H]2CO)[C@H](O)[C@@H](O)[C@H]1O", "note": "(stereo partly shown) [Lactose]", "values": [{"measurement": "Minimal Conc. (mM) necessary to inhibit the hemagglutination", "result": 3, "unit": "mM"}]}, {"compound": "CC(=O)N[C@H]1C(O)O[C@H](CO)[C@H](O)[C@@H]1O", "note": "(stereo partly shown) [N-Acetylgalactosamine]", "values": [{"measurement": "Minimal Conc. (mM) necessary to inhibit the hemagglutination", "result": 3, "unit": "mM"}]}, {"compound": "CC(=O)N[C@H]1C(O)O[C@H](CO)[C@@H](O)[C@@H]1O", "note": "(stereo partly shown) [N-Acetylglucosamine]", "values": [{"measurement": "Minimal Conc. (mM) necessary to inhibit the hemagglutination", "result": ">100", "unit": "mM"}]}]}
